The supplement of paper PMC10307832

Assays:
Veliparib + Foretinib = compound: C[C@]1(c2nc3c(C(N)=O)cccc3[nH]2)CCCN1 [Veliparib] + COc1cc2c(Oc3ccc(NC(=O)C4(C(=O)Nc5ccc(F)cc5)CC4)cc3F)ccnc2cc1OCCCN1CCOCC1 [Foretinib] (partner 0.25 µM); assay: relative viability (nuclei count vs DMSO), 5 days (fraction); higher = more cells survive
Summary of the method: (§1)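 A single step with final 0.05% Triton X-100, 1% formaldehyde and 1 ug/ml Hoechst fixed the cells and stained nuclei 5 days after treatment. Lung cancer cell lines in 1536-well plates had been treated by pin tool the day after seeding with one drug alone or a fixed anchor-drug dose plus five library-drug doses (not always all listed) in √10 steps, and nuclei were counted on 4× images. Relative viability is the ratio of nuclei in treated wells to nuclei in vehicle wells, taken as the median of duplicate plates.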

[1] = compound: COC1=CC=C(C=C1)CN2C=CC3=C2C=C(C=C3)C(=O)NO + CC1(C)CCC(c2ccc(Cl)cc2)=C(CN2CCN(c3ccc(C(=O)NS(=O)(=O)c4ccc(N[C@H](CCN5CCOCC5)CSc5ccccc5)c(S(=O)(=O)C(F)(F)F)c4)cc3)CC2)C1 [Navitoclax] (partner 0.5 µM); assay: as above
Summary of the method: as §1

Cell Line	relative viability (Veliparib + Foretinib; first compound 0.02 µM)	relative viability (Veliparib + Foretinib; first compound 0.06325 µM)	relative viability (Veliparib + Foretinib; first compound 0.2 µM)	relative viability (Veliparib + Foretinib; first compound 0.6325 µM)	relative viability (Veliparib + Foretinib; first compound 2 µM)	relative viability ([1]; first compound 0.08 µM)	relative viability ([1]; first compound 0.253 µM)	relative viability ([1]; first compound 0.8 µM)	relative viability ([1]; first compound 2.53 µM)	relative viability ([1]; first compound 8 µM)
NCI-H1666	1.01	0.96	0.997	0.895	0.964	0.85	0.893	0.988	1.26	1.06
CAL-12T	1.2	1.04	1.15	1.09	1.29	0.964	1.29	1.25	1.24	1.23
HCC-366	0.987	0.813	0.891	0.809	0.934		1.05	1.14	1.06	1.13
NCI-H1975	1.12	0.96	0.903	0.881	0.979	0.979	1.17	1.26	1.06	1.16
NCI-H460	0.994	0.909	0.952	0.948	0.983	1.04	1.15	1.08	1.15	1.1
NCI-H2170	0.977	1	0.963	0.942	1.03	0.476	0.669	0.715	0.634	0.509
NCI-H1355		0.879	0.965	0.932	0.982	0.781	1	0.94	1.11	0.873
EBC-1	0.0919	0.11	0.12	0.12	0.108	0.399	0.406	0.378	0.304	0.313
NCI-H1755	0.947	0.915	0.935	0.893	0.91	0.949	1.02	1	1.03	1.02
HCC-78	0.557	0.557	0.568	0.539	0.571		0.718	0.856	0.872	0.709
NCI-H2405	1.09	0.937	1.08	1.03	1.07	0.534	0.82	0.764	0.775	0.66
NCI-H2085		0.787	0.909	0.647	1.15	0.891	1.04	1.19	1.01	1.08
LXF-289	0.986	0.956	0.957	0.984	0.962	0.446	0.947	0.954	0.935	1.03
NCI-H1650		0.895	1.35	0.98	1.17	1.07	1.32	1.17	1.18	0.925
EPLC-272H	0.743	0.609	0.677	0.659	0.878	0.7	1.06	1.13	1.05	1.18
NCI-H647	1.35	1.15	1.29	1.15	0.977		1.04	1	0.959	1.21
NCI-H2347	0.977	0.545	0.763	0.802	0.844	0.579	0.883	0.843	0.968	0.762
